Experiment [1] has as its system RS4; 11 leukaemia cell line. Briefly: In vitro cytotoxicity, Microculture Tetrazolium Assay (MTT). It counts as cell-based. Conditions: Homo sapiens, 11 cells exposed for 48 hours. Here is the method: The cytotoxicity studies were carried out on the RS4; 11 leukaemia cell line and on H146 small Cell Lung Carcinoma cell line. The cells are distributed onto microplates and exposed to the test compounds for 48 hours. The cell viability is then quantified by a colorimetric assay, the Microculture Tetrazolium Assay (Cancer Res., 1987, 47, 939-942).

For a further experiment, the target named is Bcl-2 protein (histag-Bcl-2, UniProtKB P10415) (Homo sapiens (Human), UniProt P10415). Briefly: Inhibition of Bcl-2 by the fluorescence polarisation technique. Format: binding. Conditions: fluorescence polarisation test; incubation for 2 hours; read-out: IC50 (nM) Bcl-2 FP. From the text: For partial inhibitors, the percentage fluorescence polarisation inhibition for a given concentration of the test compound is indicated.
Sequence of Bcl-2 protein (P10415 whole entry): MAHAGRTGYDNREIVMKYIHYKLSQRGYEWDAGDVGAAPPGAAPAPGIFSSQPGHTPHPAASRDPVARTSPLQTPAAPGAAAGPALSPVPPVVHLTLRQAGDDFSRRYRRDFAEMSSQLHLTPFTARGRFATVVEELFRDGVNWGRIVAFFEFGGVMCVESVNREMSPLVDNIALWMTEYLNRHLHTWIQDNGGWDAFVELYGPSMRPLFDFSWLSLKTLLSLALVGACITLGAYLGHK
In general terms: In fluorescence polarisation assays a small probe gives low polarisation when free and higher when bound to something large.

The results in this text go back to patent US9809574B2, “Isoindoline or isoquinoline compounds, a process for their preparation and pharmaceutical compositions containing them” (LES LABORATOIRES SERVIER, priority 2013, dated 2017).

Counter-ions that a name gives are not always drawn.

For the compound `C[C@@H]1Cc2ccccc2CN1C(=O)c1cc2c(cc1-c1cc(C(=O)N(C)c3ccc(O)cc3)c3n1CCCC3)CN(C(=O)N(C)Cc1ccccc1)C2` [Example 85, N-Benzyl-5-{1-[(4-hydroxyphenyl)(methyl)carbamoyl]-5,6,7,8-tetrahydroindolizin-3-yl}-N-methyl-6-[(3R)-3-methyl-1,2,3,4-tetrahydroisoquinoline-2-carbonyl]-2,3-dihydro-1H-isoindole-2-carboxamide], the results for the IC50 (in experiment [1]; on Bcl-2 protein) were 58 nM and 6.1 nM, respectively.

As for `C[C@@H]1Cc2ccccc2CN1C(=O)c1cc2c(cc1-c1cc(C(=O)N(C)c3ccc(O)cc3)c3n1CCCC3)CN(C(=O)COc1ccccc1Cl)C2` [Example 86, 3-{2-[2-(2-Chlorophenoxy)acetyl]-6-[(3R)-3-methyl-1,2,3,4-tetrahydroisoquinoline-2-carbonyl]-2,3-dihydro-1H-isoindol-5-yl}-N-(4-hydroxyphenyl)-N-methyl-5,6,7,8-tetrahydroindolizine-1-carboxamide], the values for the IC50 (in experiment [1]; at Bcl-2 protein) were 60 nM and 5.5 nM, respectively.

On to `C[C@@H]1Cc2ccccc2CN1C(=O)c1cc2c(cc1-c1cc(C(=O)N(C)c3ccc(O)cc3)c3n1CCCC3)CN(C(=O)CNc1ccccc1)C2` [Example 87, N-(4-Hydroxyphenyl)-N-methyl-3-{6-[(3R)-3-methyl-1,2,3,4-tetrahydroisoquinoline-2-carbonyl]-2-[2-(phenylamino)acetyl]-2,3-dihydro-1H-isoindol-5-yl}-5,6,7,8-tetrahydroindolizine-1-carboxamide], for which the figures for the 50% inhibitory concentration (IC50) (in experiment [1]; on Bcl-2 protein) were 43 nM and 5.1 nM, respectively.

Regarding `Cc1c(C(=O)N(C)c2ccc(O)cc2)cc(-c2cc3c(cc2C(=O)N2Cc4ccccc4C[C@H]2CN2CCOCC2)CN(C(=O)Oc2ccccc2)CC3)n1C` [Example 88, Phenyl 6-{4-[(4-hydroxyphenyl)(methyl)carbamoyl]-1,5-dimethyl-1H-pyrrol-2-yl}-7-[(3S)-3-(morpholin-4-ylmethyl)-1,2,3,4-tetrahydroisoquinoline-2-carbonyl]-1,2,3,4-tetrahydroisoquinoline-2-carboxylate hydrochloride], the IC50 in experiment [1] was determined as 3.9 nM; at Bcl-2 protein, 3.5 nM.

Consider `Cc1c(C(=O)N(C)c2ccc(O)cc2)cc(-c2cc3c(cc2C(=O)N2Cc4ccccc4C[C@H]2CN2CCOCC2)CN(C(=O)Cc2ccccc2)CC3)n1C` [Example 89, N-(4-Hydroxyphenyl)-N,1,2-trimethyl-5-{7-[(3S)-3-(morpholin-4-ylmethyl)-1,2,3,4-tetrahydroisoquinoline-2-carbonyl]-2-(2-phenylacetyl)-1,2,3,4-tetrahydroisoquinolin-6-yl}-1H-pyrrole-3-carboxamide], for which the IC50 is 24 nM in experiment [1] and 3.5 nM at Bcl-2 protein.

Turning to `C[C@H](C(=O)N1CCc2cc(-c3cc(C(=O)N(C)c4ccc(O)cc4)c4n3CCCC4)c(C(=O)N3Cc4ccccc4C[C@H]3C)cc2C1)c1ccccc1` [Example 90, N-(4-Hydroxyphenyl)-N-methyl-3-{7-[(3R)-3-methyl-1,2,3,4-tetrahydroisoquinoline-2-carbonyl]-2-[(2S)-2-phenylpropanoyl]-1,2,3,4-tetrahydroisoquinolin-6-yl}-5,6,7,8-tetrahydroindolizine-1-carboxamide], the IC50 was 39 nM in experiment [1] and 6.2 nM on Bcl-2 protein.

In the case of `C[C@@H]1Cc2ccccc2CN1C(=O)c1cc2c(cc1-c1cc(C(=O)N(C)c3ccc(O)cc3)c3n1CCCC3)CCN(C(=O)[C@H](C)c1ccccc1)C2` [Example 91, N-(4-Hydroxyphenyl)-N-methyl-3-{7-[(3R)-3-methyl-1,2,3,4-tetrahydroisoquinoline-2-carbonyl]-2-[(2R)-2-phenylpropanoyl]-1,2,3,4-tetrahydroisoquinolin-6-yl}-5,6,7,8-tetrahydroindolizine-1-carboxamide], the half-maximal inhibitory concentration (IC50) in experiment [1] came to 73 nM; at Bcl-2 protein, 7 nM.

Take `C[C@@H]1Cc2ccccc2CN1C(=O)c1cc2c(cc1-c1cc(C(=O)N(C)c3ccc(O)cc3)c3n1CCCC3)CN(CC(=O)Nc1ccccc1)C2` [Example 92, N-(4-Hydroxyphenyl)-N-methyl-3-{6-[(3R)-3-methyl-1,2,3,4-tetrahydroisoquinoline-2-carbonyl]-2-[(phenylcarbamoyl)methyl]-2,3-dihydro-1H-isoindol-5-yl}-5,6,7,8-tetrahydroindolizine-1-carboxamide]: the IC50 came out at 105 nM in experiment [1] and 20 nM at Bcl-2 protein.

Consider `C[C@@H]1Cc2ccccc2CN1C(=O)c1cc2c(cc1-c1cc(C(=O)N(C)c3ccc(O)cc3)c3n1CCCC3)CCN(C(=O)OCc1ccccc1)C2` [Example 93, Benzyl 6-{1-[(4-hydroxyphenyl)(methyl)carbamoyl]-5,6,7,8-tetrahydroindolizin-3-yl}-7-[(3R)-3-methyl-1,2,3,4-tetrahydroisoquinoline-2-carbonyl]-1,2,3,4-tetrahydroisoquinoline-2-carboxylate], for which the IC50 in experiment [1] turned out to be 11 nM; on Bcl-2 protein, 5.1 nM.

As to `CN(C(=O)c1cc(-c2cc3c(cc2C(=O)N2Cc4ccccc4C[C@H]2CN2CCOCC2)CN(C(=O)OCc2ccccc2)CC3)n2c1CCCC2)c1ccc(O)cc1` [Example 94, Benzyl 6-{1-[(4-hydroxyphenyl)(methyl)carbamoyl]-5,6,7,8-tetrahydroindolizin-3-yl}-7-[(3S)-3-(morpholin-4-ylmethyl)-1,2,3,4-tetrahydroisoquinoline-2-carbonyl]-1,2,3,4-tetrahydroisoquinoline-2-carboxylate], the figures for the IC50 (in experiment [1]; at Bcl-2 protein) were 19 nM and 5.6 nM, respectively.

As to `CCC(C(=O)N1CCc2cc(-c3cc(C(=O)N(C)c4ccc(O)cc4)c4n3CCCC4)c(C(=O)N3Cc4ccccc4C[C@H]3C)cc2C1)c1ccccc1` (stereo partly drawn) [Example 95, N-(4-Hydroxyphenyl)-N-methyl-3-{7-[(3R)-3-methyl-1,2,3,4-tetrahydroisoquinoline-2-carbonyl]-2-(2-phenylbutanoyl)-1,2,3,4-tetrahydroisoquinolin-6-yl}-5,6,7,8-tetrahydroindolizine-1-carboxamide], the IC50 in experiment [1] came to 115 nM; on Bcl-2 protein it was 14 nM.

Consider `C[C@@H]1Cc2ccccc2CN1C(=O)c1cc2c(cc1-c1cc(C(=O)N(C)c3ccc(O)cc3)c3n1CCCC3)CCN(C(=O)Cc1ccc(NCCN3CCOCC3)cc1)C2` [Example 96, N-(4-Hydroxyphenyl)-N-methyl-3-{7-[(3R)-3-methyl-1,2,3,4-tetrahydroisoquinoline-2-carbonyl]-2-[2-(4-{[2-(morpholin-4-yl)ethyl]amino}phenyl)acetyl]-1,2,3,4-tetrahydroisoquinolin-6-yl}-5,6,7,8-tetrahydroindolizine-1-carboxamide], for which the IC50 turned out to be 9.1 nM in experiment [1] and 3.9 nM on Bcl-2 protein.

`C[C@@H]1Cc2ccccc2CN1C(=O)c1cc2c(cc1-c1cc(C(=O)N(C)c3ccc(O)cc3)c3n1CCCC3)CCN(C(=O)Cc1ccc(N3CCN(C)CC3)cc1)C2` [Example 97, N-(4-Hydroxyphenyl)-N-methyl-3-{7-[(3R)-3-methyl-1,2,3,4-tetrahydroisoquinoline-2-carbonyl]-2-{2-[4-(4-methylpiperazin-1-yl)phenyl]acetyl}-1,2,3,4-tetrahydroisoquinolin-6-yl}-5,6,7,8-tetrahydroindolizine-1-carboxamide]: the figures for the 50% inhibitory concentration (IC50) (in experiment [1]; on Bcl-2 protein) were 15 nM and 4.9 nM, respectively.

By IC50 is commonly meant the midpoint of a concentration-inhibition curve.
